# Values of other authors, collected in EP0837672B9, “PREPARATIONS AND METHODS FOR THE TREATMENT OF T CELL MEDIATED DISEASES” (YEDA RESEARCH AND DEVELOPMENT CO. LTD., priority 1995, dated 2005).
# Test system: mice
# Details: administered to mice sc in an oil vehicle such as incomplete Freund's adjuvant (IFA)
row,Substance,peptide therapy for treatment of IDDM
1,"p12: peptide corresponding to positions 166-185 of the human hsp60 sequence (EEIAQVATISANGDKEIGNI; UniProt P10809 166-185, looked up, fragment)",effective
2,"p32: peptide corresponding to positions 466-485 of the human hsp60 sequence (EIIKRTLKIPAMTIAKNAGV; UniProt P10809 466-485, looked up, fragment)",effective
3,"p277: peptide corresponding to positions 437-460 of the human hsp 60 sequence (VLGGGCALLRCIPALDSLTPANED; UniProt P10809 437-460, looked up, fragment)",effective
